# Values quoted from earlier work in EP1954843B1, “LEACHING PROCESS IN THE PRESENCE OF HY[…] FOR THE RECOVERY OF A VALUE METAL FROM AN ORE” (Anglo Operations Limited, priority 2005, dated 2007).
# Conditions: at 80°C
smiles,measurement,value
[Cl-].[Cl-].[Zn+2] [zinc chloride],soluble to the extent of,ca. 84.4 g/100g saturated solution
